Test results published in patent publication US7943296B2, “Methods of screening using a natriuretic peptide receptor” (Oregon Health & Science University, priority 2005, dated 2011).

What was measured:
[1] = system: cardiac fibroblasts (CFs); experiment: bFGF-induced α-SMA protein expression in CFs (Western blot); format: cell-based, rat; settings: fragment expressed; 10 ng/ml FGF 48 hours; 100 nM ANP
Procedure: NP's ability to inhibit growth factor-induced CF differentiation into myofibroblasts was determined as follows. CFs were transiently transfected with insertless pcDNA3 vector or pcDNA3 encoding sNRF^(806-900) (see Example 7). The transfected CFs were then treated for 48 hours with 10 ng/ml basic fibroblast growth factor (FGF; Sigma-Aldrich #F0291) in the presence or absence of 100 nM ANP. Alpha-smooth muscle actin (α-SMA) protein expression, the principal marker of CF differentiation, was assessed by Western blotting and immunofluorescence microscopy. Vimentin staining was used as a loading control because it is expressed equally in fibroblasts and transdifferentiated myofibroblasts.

[2] = target: T1, PKG (Rattus norvegicus, UniProt A9LNM8); experiment: Co-immunoprecipitation of PKG with FLAG-tagged NPRA fragments in primary CFs; format: binding; settings: 5'-FLAG-tagged fragment in transfected CFs, anti-FLAG M2 affinity gel
T1 construct: endogenous in cells; host or cells: primary neonatal rat cardiac fibroblasts transfected with 5'-FLAG sNRF fragments
T1 sequence (A9LNM8 1-671): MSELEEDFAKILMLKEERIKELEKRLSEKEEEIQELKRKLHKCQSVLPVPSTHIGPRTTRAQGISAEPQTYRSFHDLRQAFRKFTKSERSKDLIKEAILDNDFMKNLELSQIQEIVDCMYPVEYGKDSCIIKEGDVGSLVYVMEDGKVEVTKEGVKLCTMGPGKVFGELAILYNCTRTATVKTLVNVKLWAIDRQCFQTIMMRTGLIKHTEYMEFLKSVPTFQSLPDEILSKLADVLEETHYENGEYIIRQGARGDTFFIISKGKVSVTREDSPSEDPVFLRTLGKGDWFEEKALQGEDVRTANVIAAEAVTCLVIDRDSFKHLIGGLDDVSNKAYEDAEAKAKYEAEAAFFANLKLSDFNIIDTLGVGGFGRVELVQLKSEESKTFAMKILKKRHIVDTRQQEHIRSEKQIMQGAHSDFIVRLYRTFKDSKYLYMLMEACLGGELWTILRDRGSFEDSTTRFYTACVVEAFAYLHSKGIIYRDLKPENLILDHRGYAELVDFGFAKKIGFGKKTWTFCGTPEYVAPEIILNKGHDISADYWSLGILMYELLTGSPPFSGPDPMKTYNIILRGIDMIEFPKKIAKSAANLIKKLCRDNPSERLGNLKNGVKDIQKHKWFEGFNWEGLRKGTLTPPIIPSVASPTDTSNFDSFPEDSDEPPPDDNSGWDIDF
Procedure: Neonatal rat ventricular fibroblasts (CFs) were cultured from 1 to 2-day-old Harlan Sprague-Dawley rats as described previously (Simpson, Circulation Res. 56:884-94, 1985). Briefly, ventricles were dissected free from atria and quartered. Following dissociation in ADS buffer containing 1.5 mg/ml trypsin (Gibco #27250-018) and 1% DNase solution (2 mg/ml DNase type II, 150 mM NaCl) with serum neutralization the collected cells were pre-incubated in media at 37° C. for 90 minutes to allow CF attachment to the bottom of culture dishes. CFs were incubated in plating media for 48 hours, divided into 6-well culture plates or dual-well chamberslides, and grown to 50% confluency in DMEM with 10% FBS prior to use.
CFs were transiently transfected with nucleic acid molecules encoding sNRF^(806-1061), sNRF^(806-900), or sNRF^(806-860) using routine methods. Briefly, PCR-generated, 5′-FLAG epitope-tagged sNRFs were subcloned into the BamHI and EcoRI sites of pCDNA3 (Invitrogen) and sequenced to verify construction accuracy. […]
The ability of the NPRA fragments to immunoprecipitate PKG was determined in the primary CF cells transfected with the 5′-FLAG epitope-tagged NPRA fragments as follows. […] Bound antibody was detected with chemiluminescent substrate (Western Lightning ECL, PerkinElmer Life Sciences).

[3] = system: NPRA; experiment: [35S]ATPγS incorporation into NPRA (receptor phosphorylation) in CFs; format: cell-based, rat; settings: ANP 5 minutes, KT5823 1 μM or expressed fragment
Procedure: To identify receptor phosphorylation by PKG, ^[35S]ATPγS was employed as a substrate. [^35S] incorporation into NPRA was analyzed according to the method previously described (Joubert et al., Biochem. 40:11096-105, 2001). Briefly, the treated CFs were scraped into 100 μl ice-cold incubation buffer (25 mM HEPES, pH 7.4, 50 mM NaCl, 5 mM MgCl2, 0.2 μM okadaic acid, 1 mM Na3VO4, 10 mM NaH2PO4, 10 mM NaF, and protease inhibitors (complete mini-tablet, Roche) and lysed by repeated passage through a 22-gauge needle. Lysates were added to incubation buffer containing 1 μCi [^35S]ATPγS (specific activity >1000 Ci/mmol), final volume of 200 μl, incubated at 37° C. for 30 minutes. Proteins were analyzed by SDS-PAGE (7.5%) and subsequent autoradiography.

“sNRF^(806-900): intracellular NPRA fragment, residues 806-900, excludes the cyclase-containing domain; shortest fragment observed to associate with PKG” was tested, and the “ANP's inhibitory effect on growth factor-induced α-SMA protein expression” value [1] was “reversed ANP's inhibitory effect”, the “co-immunoprecipitation of PKG” value [2] was “co-immunoprecipitated PKG” and the “ANP-induced NPRA phosphorylation” value [3] was “reduced ANP-induced NPRA phosphorylation to control levels”.
